According to patent US20140135319A1, “6-SUBSTITUTED IMIDAZOPYRAZINES FOR USE AS MPS-1 AND TKK INHIBITORS IN THE TREATMENT OF HYPERPROLIFERATIVE DISORDERS” (BAYER INTELLECTUAL PROPERTY GMBH, priority 2010, published 2014):

Biological target: T1, human kinase Mps-1 (Homo sapiens, UniProt P33981)
T1 construct: N-terminally GST-tagged human full length recombinant Mps-1 kinase; GST (N); purchased Invitrogen, Karslruhe, Germany PV4071
T1 sequence (P33981 1-857): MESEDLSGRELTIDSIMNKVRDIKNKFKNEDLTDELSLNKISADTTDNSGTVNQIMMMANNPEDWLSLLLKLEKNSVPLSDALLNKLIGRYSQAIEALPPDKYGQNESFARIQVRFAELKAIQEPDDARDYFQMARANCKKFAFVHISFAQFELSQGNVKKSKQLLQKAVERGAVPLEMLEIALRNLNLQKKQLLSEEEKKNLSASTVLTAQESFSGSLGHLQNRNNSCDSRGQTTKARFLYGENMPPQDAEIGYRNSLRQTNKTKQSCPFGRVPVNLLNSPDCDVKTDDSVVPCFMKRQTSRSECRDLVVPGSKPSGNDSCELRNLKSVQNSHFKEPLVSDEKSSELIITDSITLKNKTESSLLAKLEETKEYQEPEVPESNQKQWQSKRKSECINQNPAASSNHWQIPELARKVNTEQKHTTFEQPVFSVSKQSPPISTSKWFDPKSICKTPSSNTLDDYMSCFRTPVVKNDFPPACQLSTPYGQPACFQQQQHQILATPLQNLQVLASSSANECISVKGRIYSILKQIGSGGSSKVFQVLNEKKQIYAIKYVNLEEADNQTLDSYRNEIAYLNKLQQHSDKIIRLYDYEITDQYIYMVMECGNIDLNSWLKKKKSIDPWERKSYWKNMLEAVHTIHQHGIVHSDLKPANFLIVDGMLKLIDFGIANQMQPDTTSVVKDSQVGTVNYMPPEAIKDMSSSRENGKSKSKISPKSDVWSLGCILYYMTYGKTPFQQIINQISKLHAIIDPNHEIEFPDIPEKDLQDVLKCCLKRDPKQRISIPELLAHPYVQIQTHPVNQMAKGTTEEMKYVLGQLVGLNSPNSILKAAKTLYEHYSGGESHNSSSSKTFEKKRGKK
Assay: Mps-1 kinase assay (TR-FRET)
Format: biochemical
Conditions: GST-tagged human full length recombinant Mps-1; 10 μM ATP; 1 μM peptide substrate; 60 min at 22° C.
Method: The human kinase Mps-1 phosphorylates a biotinylated substrate peptide. Detection of the phosphorylated product is achieved by time-resolved fluorescence resonance energy transfer (TR-FRET) from Europium-labelled anti-phospho-Serine/Threonine antibody as donor to streptavidin labelled with cross-linked allophycocyanin (SA-XLent) as acceptor. Compounds are tested for their inhibition of the kinase activity.
N-terminally GST-tagged human full length recombinant Mps-1 kinase (purchased from Invitrogen, Karslruhe, Germany, cat. no PV4071) was used. As substrate for the kinase reaction a biotinylated peptide of the amino-acid sequence […] (C-terminus in amide form, purchased from Biosynthan GmbH, Berlin) was used.
The concentration of Mps-1 in the assay was adjusted to the activity of the enzyme lot and was chosen appropriate to have the assay in the linear range, typical enzyme concentrations were in the range of about 1 nM (final conc. in the 5 μl assay volume).
The resulting mixture was incubated 1 h at 22° C. to allow the binding of the phosphorylated peptide to the anti-phospho(Ser/Thr)-Europium-antibody. Subsequently the amount of phosphorylated substrate was evaluated by measurement of the resonance energy transfer from the Europium-labelled anti-phospho(Ser/Thr) antibody to the Streptavidin-XLent. Therefore, the fluorescence emissions at 620 nm and 665 nm after excitation at 350 nm was measured in a Viewlux TR-FRET reader (PerkinElmer LAS, Rodgau-Jügesheim, Germany). The “blank-corrected normalized ratio” (a Viewlux specific readout, similar to the traditional ratio of the emissions at 665 nm and at 622 nm, in which blank and Eu-donor crosstalk are subtracted from the 665 nm signal before the ratio is calculated) was taken as the measure for the amount of phosphorylated substrate.

Row | IC50 [nM] | Structure (SMILES)
1 | 1 | O=C(NC1CC1)c1ccc(-c2cnc3c(NCc4ccccc4F)nc(-c4ccncc4)cn23)cc1 [Example 3-9, N-cyclopropyl-4-{8-[(2-fluorobenzyl)amino]-6-(pyrdin-4-yl)imidazo [1,2-a]pyrazin-3-yl} benzamide]
2 | 1.8 | CC(C)CNc1nc(-c2ccncc2)cn2c(-c3ccc(C(=O)NC4CC4)cc3)cnc12 [Example 1-1, N-cyclopropyl-4-{8-[(2-methylpropyl)amino]-6-(pyridin-4-yl)imidazo[1,2-a]pyrazin-3-yl}benzamide]
3 | 1.5 | CC(C)CNc1nc(C2CCOCC2)cn2c(-c3ccc(C(=O)NC4CC4)cc3)cnc12 [Example 7-4, N-cyclopropyl-4-{8-[(2-methylpropyl)amino]-6-(tetrahydro-2H-pyran-4-yl)imidazo[1,2-a]pyrazin-3-yl}benzamide]
4 | 29.5 | CC(C)CNc1nc(-c2ccnn2C)cn2c(-c3ccc(C(=O)NC4CC4)cc3)cnc12 [Example 1-13, N-cyclopropyl-4-{8-[(2-methylpropyl)amino]-6-(1-methyl-1H-pyrazol-5-yl)imidazo[1,2-a]pyrazin-3-yl}benzamide]
5 | 3.7 | C=C(C)CNc1nc(-c2ccccc2)cn2c(-c3ccc(C(=O)NC4CC4)cc3)cnc12 [Example 3-40, N-Cyclopropyl-4-{8-[(2-methylprop-2-en-1-yl)amino]-6-phenylimidazo[1,2-a]pyrazin-3-yl}benzamide]
6 | 1.7 | CC(C)CNc1nc(-c2ccn[nH]2)cn2c(-c3ccc(C(=O)NC4CC4)cc3)cnc12 [Example 1-30, N-cyclopropyl-4-{8-[(2-methylpropyl)amino]-6-(1H-pyrazol-5-yl)imidazo[1,2-a]pyrazin-3-yl}benzamide]
7 | 44.8 | Cc1cc(-c2cnc3c(NCC4CC(=O)N(C)C4)nc(C4=CCOCC4)cn23)ccc1C(=O)NC1CC1 (stereo not shown) [Example 6-15, N-cyclopropyl-4-[6-(3,6-dihydro-2H-pyran-4-yl)-8-{[(1-methyl-5-oxopyrrolidin-3-yl)methyl]amino}imidazo[1,2-a]pyrazin-3-yl]-2-methylbenzamide]
8 | 4.1 | O=C(NC1CC1)c1ccc(-c2cnc3c(NCc4cccs4)nc(-c4ccncc4)cn23)cc1 [Example 3-1, N-cyclopropyl-4-{6-(pyridin-4-yl)-8-[(thiophen-2-ylmethyl)amino]imidazo[1,2-a]pyrazin-3-yl}benzamide]
9 | 28 | Cc1cc(-c2cnc3c(NCCCC(C)O)nc(C4=CCOCC4)cn23)ccc1C(=O)NC1CC1 (stereo not shown) [Example 6-12, N-cyclopropyl-4-{6-(3,6-dihydro-2H-pyran-4-yl)-8-[(4-hydroxypentyl)amino]imidazo[1,2-a]pyrazin-3-yl}-2-methylbenzamide]
10 | 20.4 | O=C(NC1CC1)c1ccc(-c2cnc3c(NCCOCC4CCCO4)nc(-c4ccccc4)cn23)cc1 (stereo not shown) [Example 3-41, N-cyclopropyl-4-(6-phenyl-8-{[2-(tetrahydrofuran-2-ylmethoxy)ethyl]amino}imidazo[1,2-a]pyrazin-3-yl)benzamide]
11 | 10.4 | Cc1cc(-c2cnc3c(NCC4CC4C)nc(-c4ccc(F)cc4)cn23)ccc1C(=O)NC1CC1 (stereo not shown) [Example 6-3, N-cyclopropyl-4-[6-(4-fluorophenyl)-8-{[(2-methylcyclopropyl)methyl]amino}imidazo[1,2-a]pyrazin-3-yl]-2-methylbenzamide]
12 | 12.2 | O=C(NC1CC1)c1ccc(-c2cnc3c(NCCC(F)(F)F)nc(C4=CCOCC4)cn23)cc1Cl [Example 1-39, 2-chloro-N-cyclopropyl-4-{6-(3,6-dihydro-2H-pyran-4-yl)-8-[(3,3,3-trifluoropropyl)amino]imidazo[1,2-a]pyrazin-3-yl}benzamide]
13 | 11.1 | Cc1cc(-c2cnc3c(NCC4CCC(C)(O)CC4)nc(C4=CCOCC4)cn23)ccc1C(=O)NC1CC1 (stereo not shown) [Example 6-8, N-cyclopropyl-4-[6-(3,6-dihydro-2H-pyran-4-yl)-8-{[(4-hydroxy-4-methylcyclohexyl)methyl]amino}imidazo[1,2-a]pyrazin-3-yl]-2-methylbenzamide]
14 | 2.3 | Cc1nnc(-c2ccc(-c3cn4c(-c5ccc(C(=O)NC6CC6)cc5)cnc4c(NCC(C)C)n3)cc2)o1 [Example 1-22, N-cyclopropyl-4-{6-[4-(5-methyl-1,3,4-oxadiazol-2-yl)phenyl]-8-[(2-methylpropyl)amino]imidazo[1,2-a]pyrazin-3-yl}benzamide]
15 | 8.1 | O=C(NC1CC1)c1ccc(-c2cnc3c(NCCC(F)(F)F)nc(-c4ccoc4)cn23)cc1Cl [Example 1-37, 2-chloro-N-cyclopropyl-4-{6-(furan-3-yl)-8-[(3,3,3-trifluoropropyl)amino]imidazo[1,2-a]pyrazin-3-yl}benzamide]
16 | 2 | O=C(NC1CC1)c1ccc(-c2cnc3c(NCc4cccnc4)nc(-c4ccncc4)cn23)cc1 [Example 3-18, N-cyclopropyl-4-{6-(pyridin-4-yl)-8-[(pyridin-3-ylmethyl)amino]imidazo [1,2-a]pyrazin-3-yl} benzamide]
17 | 50.3 | CC(C)CNc1nc(-c2cccc(CC(=O)O)c2)cn2c(-c3ccc(C(=O)NC4CC4)cc3)cnc12 [Example 1-88, (3-{3-[4-(cyclopropyl-carbamoyl)phenyl]-8-(iso-butylamino)imidazo[1,2-a]pyrazin-6-yl}phenyl)acetic acid]
18 | 5.6 | NCCCCCNc1nc(-c2cccc(CC(N)=O)c2)cn2c(-c3ccc(C(=O)NC4CC4)cc3)cnc12 [Example 1-96, 4-{6-[3-(2-Amino-2-oxo-ethyl)phenyl]-8-[(5-amino-pentyl)amino]imidazo[1,2-a]pyrazin-3-yl}-N-cyclo-propylbenzamide]
19 | 5 | CC(C)(O)CNc1nc(-c2ccncc2)cn2c(-c3ccc(C(=O)NC4CC4)cc3)cnc12 [Example 1-90, N-cyclopropyl-4-{8-[(2-hydroxy-2-methylpropyl)amino]-6-(pyridin-4-yl)imidazo[1,2-a]pyrazin-3-yl} benzamide]
20 | 13.1 | O=C(NC1CC1)c1ccc(-c2cnc3c(NCC4CCCO4)nc(-c4ccncc4)cn23)cc1F (stereo not shown) [Example 1-61, N-cyclopropyl-2-fluoro-4-{6-(pyridin-4-yl)-8-[(tetrahydrofuran-2-ylmethyl)amino]imidazo [1,2-a]pyrazin-3-yl} benzamide]
21 | 10.8 | NCC#CCCNc1nc(-c2ccccc2)cn2c(-c3ccc(C(=O)NC4CC4)cc3)cnc12 [Example 4-1, 4-{8-[(5-Aminopent-3-yn-1-yl)amino]-6-phenylimidazo[1,2-a]pyrazin-3-yl}-N-cyclopropylbenzamide]
22 | 361 | NCCCNc1nc(-c2ccncc2)cn2c(-c3ccc(C(=O)NC4CC4)c(Cl)c3)cnc12 [Example 1-101, 4-{8-[(3-Aminopropyl)amino]-6-(pyridin-4-yl)imidazo [1,2-a]pyrazin-3-yl}-2-chloro-N-cyclopropyl-benzamide]
23 | 2.3 | O=C(NC1CC1)c1ccc(-c2cnc3c(NCc4ccccc4)nc(-c4ccncc4)cn23)cc1 [Example 3-12, 4-[8-(benzylamino)-6-(pyridin-4-yl)imidazo [1,2-a]pyrazin-3-yl]-N-cyclopropylbenzamide]
24 | 11.4 | CC(C)CNc1nc(C2=CCOCC2)cn2c(-c3ccc(C(=O)NC4CC4)c(Cl)c3)cnc12 [Example 1-35, 2-chloro-N-cyclopropyl-4-{6-(3,6-dihydro-2H-pyran-4-yl)-8-[(2-methyl-propyl)amino]imidazo [1,2-a]pyrazin-3-yl} benzamide]
25 | 3.7 | CC(C)CNc1nc(-c2ccncc2)cn2c(-c3ccc(C(=O)NC4CC4)c(F)c3)cnc12 [Example 1-49, N-cyclopropyl-2-fluoro-4-{8-[(2-methylpropyl)amino]-6-(pyridin-4-yl)imidazo[1,2-a]pyrazin-3-yl}benzamide]
